In PubChem BioAssay (NCI) one finds TGI data, which are given here for 14 molecules.

The TGI is the concentration at which net growth stops. High values mean lower sensitivity of the cells, low ones greater sensitivity of the cells.

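Step 1: Grow cells in 96-well plates. Step 2: Expose to compound for 48 hours at 5 concentrations. Step 3: Interpolate endpoints linearly; if unreached, use highest concentration. TGI marks complete inhibition of growth.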

One assay concerns SNB-75 CNS. Description: DTP human tumour cell line panel, 48 h.
For `CCOC(=O)c1csc(NC(=O)CN2CCN(C)CC2)n1`, the TGI was above 100 µM.

In the case of `CC#C[P+](c1ccccc1)(c1ccccc1)c1ccccc1`, the TGI turned out to be 12 µM.

Molecule `CCCC(O)C(NC(=O)CCl)C(=O)O` (centres undefined) displayed a TGI above 100 µM.

The molecule `CN1C(=O)C(CC=O)(C(C)(C)C)c2ccccc21` (centres undefined) gave a TGI above 100 µM.

As to `COc1cc(/C=C/C(=O)O)ccc1C(=O)OCc1ccccc1`, the TGI is above 100 µM.

The molecule `O=C(CC(=O)c1ccccc1)CC(O)(c1ccccc1)c1ccccc1` came in with a TGI of 27.5 µM.

In turn, `O=C(O)c1cccnc1` returned a concentration for total growth inhibition (TGI) above 100 µM.

Take `Cc1cccc(C(C)C)c1NC(=O)CC1Sc2ccccc2NC1=O` (centres undefined): the TGI is above 100 µM.

Molecule `CC(C)C1=C(Cc2ccccc2)C(=O)O/C1=C\c1cc(Cl)c(O)c(Cl)c1` yielded a concentration for total growth inhibition (TGI) of 36.8 µM. In other words, the double-digit micromolar range.

The molecule `COc1cc2c(cc1O)C1C(O)C(O)C=C3CCN(C2)C31` (centres undefined) returned a total growth inhibition concentration (TGI) of 9.69 µM.

`C[C@@H]1CCC2[C@@H](C)[C@@H](OCCO[C@H]3OC4O[C@@]5(C)CCC6[C@H](C)CCC([C@H]3C)[C@@]46OO5)OC3O[C@@]4(C)CCC1[C@]32OO4` (some centres undefined) registered a total growth inhibition concentration (TGI) above 100 µM.

In the case of `CC(C)=CCc1c(O)ccc2ccc(=O)oc12`, the TGI is above 100 µM.

The subject of another assay is KM12 colon. The assay can be described thus: DTP human tumour cell line panel, 48 h.
`CCOC(=O)c1csc(NC(=O)CN2CCN(C)CC2)n1` displayed a TGI above 100 µM.

On to `CC(C)(C)[Si](C)(C)OC1/C(=C/C#N)C(n2ccc(=O)[nH]c2=O)OC1CO` (centres undefined), for which the TGI is above 100 µM.

The molecule `CC#C[P+](c1ccccc1)(c1ccccc1)c1ccccc1` came in with a concentration for total growth inhibition (TGI) of 11.3 µM. This counts as double-digit micromolar.

In the case of `CCCC(O)C(NC(=O)CCl)C(=O)O` (centres undefined), the concentration for total growth inhibition (TGI) was above 100 µM.

Consider `CN1C(=O)C(CC=O)(C(C)(C)C)c2ccccc21` (centres undefined), for which the concentration for total growth inhibition (TGI) was above 100 µM.

As to `COc1cc(/C=C/C(=O)O)ccc1C(=O)OCc1ccccc1`, the TGI was above 100 µM.

Molecule `O=C(CC(=O)c1ccccc1)CC(O)(c1ccccc1)c1ccccc1` registered a concentration for total growth inhibition (TGI) of 21.9 µM.

In the case of `O=C(O)c1cccnc1`, the TGI is above 100 µM.

In the case of `Cc1cccc(C(C)C)c1NC(=O)CC1Sc2ccccc2NC1=O` (centres undefined), the TGI was above 100 µM.

Molecule `CC(C)C1=C(Cc2ccccc2)C(=O)O/C1=C\c1cc(Cl)c(O)c(Cl)c1` came in with a TGI of 35.1 µM.

Regarding `COc1cc2c(cc1O)C1C(O)C(O)C=C3CCN(C2)C31` (centres undefined), the concentration for total growth inhibition (TGI) was 11 µM.

As for `C[C@@H]1CCC2[C@@H](C)[C@@H](OCCO[C@H]3OC4O[C@@]5(C)CCC6[C@H](C)CCC([C@H]3C)[C@@]46OO5)OC3O[C@@]4(C)CCC1[C@]32OO4` (some centres undefined), the total growth inhibition concentration (TGI) is above 100 µM.

Molecule `Cc1cc(OCc2nnc3n2N=C(c2cc(F)c(Cl)cc2Cl)/C(=C/c2ccc(Cl)cc2)S3)ccc1Cl` gave a TGI of 60.2 µM.

As to `CC(C)=CCc1c(O)ccc2ccc(=O)oc12`, the TGI was above 100 µM.

The test system of a further assay is OVCAR-4 ovarian. Description: DTP human tumour cell line panel, 48 h.
Molecule `CCOC(=O)c1csc(NC(=O)CN2CCN(C)CC2)n1` returned a total growth inhibition concentration (TGI) above 100 µM.

With `CC(C)(C)[Si](C)(C)OC1/C(=C/C#N)C(n2ccc(=O)[nH]c2=O)OC1CO` (centres undefined), the concentration for total growth inhibition (TGI) was above 100 µM.

As for `CC#C[P+](c1ccccc1)(c1ccccc1)c1ccccc1`, the TGI was found to be 20.1 µM.

Regarding `CCCC(O)C(NC(=O)CCl)C(=O)O` (centres undefined), the total growth inhibition concentration (TGI) is above 100 µM.

The molecule `CN1C(=O)C(CC=O)(C(C)(C)C)c2ccccc21` (centres undefined) came in with a TGI above 100 µM.

In the case of `COc1cc(/C=C/C(=O)O)ccc1C(=O)OCc1ccccc1`, the TGI is above 100 µM.

Consider `O=C(CC(=O)c1ccccc1)CC(O)(c1ccccc1)c1ccccc1`, for which the TGI stood at 17.9 µM.

Consider `O=C(O)c1cccnc1`, for which the TGI is above 100 µM.

Take `Cc1cccc(C(C)C)c1NC(=O)CC1Sc2ccccc2NC1=O` (centres undefined): the TGI was above 100 µM.

`CC(C)C1=C(Cc2ccccc2)C(=O)O/C1=C\c1cc(Cl)c(O)c(Cl)c1`: the TGI is 30.1 µM.

`COc1cc2c(cc1O)C1C(O)C(O)C=C3CCN(C2)C31` (centres undefined) gave a concentration for total growth inhibition (TGI) of 4.84 µM.

`C[C@@H]1CCC2[C@@H](C)[C@@H](OCCO[C@H]3OC4O[C@@]5(C)CCC6[C@H](C)CCC([C@H]3C)[C@@]46OO5)OC3O[C@@]4(C)CCC1[C@]32OO4` (some centres undefined): the TGI is above 100 µM.

`Cc1cc(OCc2nnc3n2N=C(c2cc(F)c(Cl)cc2Cl)/C(=C/c2ccc(Cl)cc2)S3)ccc1Cl` showed a TGI of 59.8 µM.

In turn, `CC(C)=CCc1c(O)ccc2ccc(=O)oc12` showed a TGI above 100 µM.

For a further assay, the system named is IGROV1 ovarian. Description: DTP human tumour cell line panel, 48 h.
In turn, `CCOC(=O)c1csc(NC(=O)CN2CCN(C)CC2)n1` came in with a TGI above 100 µM.

Molecule `CC#C[P+](c1ccccc1)(c1ccccc1)c1ccccc1` showed a TGI of 26.1 µM.

For `CCCC(O)C(NC(=O)CCl)C(=O)O` (centres undefined), the concentration for total growth inhibition (TGI) is above 100 µM.

As for `COc1cc(/C=C/C(=O)O)ccc1C(=O)OCc1ccccc1`, the TGI was above 100 µM.

`O=C(O)c1cccnc1` registered a TGI above 100 µM.

The molecule `Cc1cccc(C(C)C)c1NC(=O)CC1Sc2ccccc2NC1=O` (centres undefined) registered a TGI above 100 µM.

With `CC(C)C1=C(Cc2ccccc2)C(=O)O/C1=C\c1cc(Cl)c(O)c(Cl)c1`, the total growth inhibition concentration (TGI) stood at 44.1 µM.

On to `COc1cc2c(cc1O)C1C(O)C(O)C=C3CCN(C2)C31` (centres undefined), for which the TGI was 13.6 µM.

For the molecule `C[C@@H]1CCC2[C@@H](C)[C@@H](OCCO[C@H]3OC4O[C@@]5(C)CCC6[C@H](C)CCC([C@H]3C)[C@@]46OO5)OC3O[C@@]4(C)CCC1[C@]32OO4` (some centres undefined), the TGI was above 100 µM.

Take `Cc1cc(OCc2nnc3n2N=C(c2cc(F)c(Cl)cc2Cl)/C(=C/c2ccc(Cl)cc2)S3)ccc1Cl`: the TGI came to 52.8 µM. This lies in the double-digit micromolar range.

For the molecule `CC(C)=CCc1c(O)ccc2ccc(=O)oc12`, the concentration for total growth inhibition (TGI) was above 100 µM.

The subject of another assay is A549 NSCLC. The assay can be described thus: DTP human tumour cell line panel, 48 h.
Regarding `CCOC(=O)c1csc(NC(=O)CN2CCN(C)CC2)n1`, the TGI was above 100 µM.

As to `CC(C)(C)[Si](C)(C)OC1/C(=C/C#N)C(n2ccc(=O)[nH]c2=O)OC1CO` (centres undefined), the concentration for total growth inhibition (TGI) is above 100 µM.

The molecule `CC#C[P+](c1ccccc1)(c1ccccc1)c1ccccc1` displayed a TGI above 100 µM.
